The record followed here is ChEMBL document CHEMBL1147896, “Small molecule inhibitors of E. coli primase, a novel bacterial target” (Bioorg Med Chem Lett, 2007).

In one assay the test system is Escherichia coli. The experiment in a line: Antibacterial activity against Escherichia coli. Type of assay: functional.
The nature of assay [1]: Inhibition of Escherichia coli primase by scintillation proximity assay. A general note: SPA uses beads or plates that emit light when radiolabelled molecules are held near them.

The structures appear in SMILES notation. Converted amounts (≈) assume the structure as drawn.

A word on the MIC: it is the lowest concentration that inhibits growth of the organism. Lower therefore signals greater potency. The term IC50 denotes the concentration that inhibits the measured activity by half. On to `CCc1nc(N2CCN(CC)CC2)c2oc3ccccc3c2n1`, for which, in the assay on Escherichia coli, the MIC is > 64 µg/mL. The molecule further displayed an IC50 in assay [1] of 170 µM.
In the assay on Escherichia coli, `CSc1nc(NCCN(C)C)c2sc3nc(CC(C)C)c4c(c3c2n1)CCC4` came in with a minimal inhibitory concentration (MIC) of 4 µg/mL (≈ 9.62 µM). Besides, the IC50 in assay [1] turned out to be 22 µM.
On the same counts, the results for `c1ccc(-c2cn3c4ccccc4n(CCN4CCCCC4)c3n2)cc1` are 64 µg/mL (≈ 186 µM) and 18.4 µM.
For `CCN1CCN(c2nc(SC)nc3c2sc2nc(C(C)C)c4c(c23)CCC4)CC1` the same measures were > 64 µg/mL and > 200 µM.
On the same counts, the results for `CN1CCN(c2nc(-c3ccccc3O)nc3ccccc23)CC1` are > 64 µg/mL and 7.2 µM.
As for `CCN(CC)CCNc1nc(SC)nc2c1sc1nc(N3CCOCC3)c3c(c12)CC(C)(C)OC3`, the lowest concentration to inhibit growth against Escherichia coli (MIC) was 64 µg/mL (≈ 124 µM). Also, the IC50 in assay [1] was determined as 45 µM.
For `CN(C)CCNc1cc(-c2ccncc2)nc(-c2ccccn2)n1` the same measures were > 64 µg/mL and 44.7 µM.
For `OCCN1CCN(c2ncnc3c2oc2ccccc23)CC1` the same measures were 64 µg/mL (≈ 215 µM) and 138 µM.
For `CN(C)CCOc1nc(-c2ccccc2)nc2c1oc1ccccc12` the same measures were 4 µg/mL (≈ 12 µM) and 3.4 µM.
As to `COc1ccc(-c2cn3c4ccccc4n(CCN4CCCCC4)c3n2)cc1`, the MIC with Escherichia coli is > 64 µg/mL. In addition, inhibition in assay [1] was half-maximal at 162 µM (IC50).
For `Cc1ccc(-c2cn3c4ccccc4n(CCN4CCCCC4)c3n2)cc1` the same measures were 64 µg/mL (≈ 179 µM) and 99.5 µM.
For `c1csc(-c2cn3c4ccccc4n(CCN4CCCCC4)c3n2)c1` the same measures were 64 µg/mL (≈ 183 µM) and 32.3 µM.
On the same counts, the results for `CCN(CC)CCNc1nc(SC)nc2c1sc1nc(C)c3c(c12)CC(C)(C)OC3` are 32 µg/mL (≈ 71.8 µM) and 16.9 µM.
As for `CCN1CCN(c2nc(-c3ccncc3)nc3ccccc23)CC1`, in the assay with Escherichia coli, the MIC was > 64 µg/mL. In assay [1], this molecule came in with an IC50 of 27.3 µM.
In the case of `c1ccc2c(c1)oc1c(N3CCN(C4CCCC4)CC3)ncnc12`, the MIC with Escherichia coli was > 64 µg/mL. The same molecule came in with an IC50 in assay [1] of 122 µM.
Molecule `CSc1nc(NCCN(C)C)c2sc3nc(C(C)C)c4c(c3c2n1)CCC4` gave an MIC in the assay with Escherichia coli of 8 µg/mL (≈ 19.9 µM). In addition, half-maximal inhibition in assay [1] (IC50) was put at 26.6 µM.
For `CN1CCN(c2ncnc3c2oc2ccccc23)CC1` the same measures were 64 µg/mL (≈ 239 µM) and 85.1 µM.
For `CN1CCN(c2nc(Nc3cccc(O)c3)nc3ccccc23)CC1` the same measures were > 64 µg/mL and 50.5 µM.
On the same counts, the results for `CN1CCN(c2nc(-c3ccc(Cl)cc3)nc3c2oc2ccccc23)CC1` are > 64 µg/mL and > 200 µM.
In the case of `CSc1nc(NCCN(C)C)c2sc3nc(CC(C)C)c4c(c3c2n1)CC(C)(C)OC4`, the MIC in the assay on Escherichia coli was > 64 µg/mL. This molecule also had an IC50 in assay [1] of 79.2 µM.
For `CSc1nc(NCCN2CCOCC2)c2sc3nc(C(C)C)c4c(c3c2n1)CCC4` the same measures were > 64 µg/mL and > 200 µM.
On to `CCN(CC)CCNc1nc(SC)nc2c1sc1nc(C(C)C)c3c(c12)CCC3`, for which, in the assay on Escherichia coli, the MIC is > 64 µg/mL. The molecule further registered an IC50 in assay [1] of 36 µM.
For `CN1CCN(c2nc(-c3ccccc3)nc3c2oc2ccccc23)CC1` the same measures were > 64 µg/mL and 42.5 µM.
For `CC(C)c1nc2sc3c(NCCN(C)C)ncnc3c2c2c1CCCC2` the same measures were 16 µg/mL (≈ 43.3 µM) and 61 µM.
`CCCCc1nc2sc3c(NCCN(C)C)nc(SC)nc3c2c2c1CCC2`: the minimum inhibitory concentration (MIC) against Escherichia coli is 8 µg/mL (≈ 19.2 µM). The molecule further registered a 50% inhibitory concentration (IC50) in assay [1] of 103 µM.
